From patent US20220331303A1, “USE OF AN OREXIN 2 RECEPTOR AGONIST FOR THE TREATMENT OF EXCESSIVE SLEEPINESS” (Takeda Pharmaceutical Company Limited, priority 2019, published 2022)

Test system: sleep-deprived healthy volunteers
Assay: Polysomnography (PSG) of recovery sleep after sleep deprivation in healthy volunteers
Format: in vivo, human
Method: Exploratory objectives in sleep-deprived healthy volunteers were as follows: • 1. To compare the effects of Compound A (LD and HD) and modafinil (300 mg) on promoting wakefulness as measured by MWT. • 2. To determine PK-PD relationships for selected PD measures. • 3. To evaluate PK-BP relationships in BP change after Compound A administration. • 4. To compare various polysomnography (PSG) parameters between Day −1 (predose) and Day 2 (recovery sleep). • 5. To determine whether there is any difference in the PSG parameters on Day 2 (recovery sleep) between Compound A and placebo or modafinil. • 6. To evaluate the continuous electroencephalogram (EEG) obtained during the MWTs for power spectra changes for Compound A (LD and HD) versus placebo, Compound A (LD and HD) versus modafinil, and modafinil versus placebo.
During the day before dosing on Day 1, participants were administered the KSS at scheduled timepoints. A practice MWT session was performed on Day 1 treatment period 1 (only once during the entire study) to familiarize subjects with the procedures. Study drug was administered in the clinic in the evening on Day 1 of each treatment period. Subjects underwent the MWT and KSS at specified timepoints after the start of the infusion. Subjects were required to stay awake between the MWT tests. Following completion of the IV infusion on Day 2, subjects underwent an additional MWT test. When the final MWT test and cognitive testing were completed, subjects were allowed to sleep (recovery sleep) for approximately 6 hours. PSG recording was collected during this time. Subjects were discharged from the unit after completion on Day 2 with continuing actigraphy upon discharge (to begin on Day −6 before the next treatment period). The interval between each subsequent treatment period was at least 7 days to ensure that the subject's circadian rhythm had returned to a normal cycle. Subject's vital signs, including BP, were monitored during the dosing and testing period. Blood samples for determination of Compound A plasma concentrations were collected at specified timepoints on Days 1 and 2 of each treatment period. Subjects completed the Columbia-Suicide Severity Rating Scale (C-SSRS) during screening, before study drug administration, and before discharge on Day 2 of each treatment period.
The PSGs assess recovery sleep during the day after the end of the sleep deprivation period. There were no corrections for multiple comparisons. […]

[1] = Compound A 112 mg, recovery sleep
[2] = HD: Compound A 112 mg, recovery sleep

Compound: COC(=O)N1CCC[C@H](NS(C)(=O)=O)[C@@H]1CO[C@H]1CC[C@@H](c2ccccc2)CC1 [Compound A, methyl (2R,3S)-3-((methylsulfonyl)amino)-2-(((cis-4-phenylcyclohexyl)oxy)methyl)piperidine-1-carboxylate]
- PSG N2 latency, LS mean difference vs placebo (Compound A 44 mg, recovery sleep): -2.74 min
- PSG REM latency, LS mean difference vs placebo [1]: 29.64 min
- PSG stage REM %, LS mean difference vs placebo [1]: −5.66%
- PSG stage REM duration, LS mean difference vs placebo [1]: -19.73 min
- Stage N3 Duration LS Mean (HD: Compound A 112 mg): 87.23 min
- Stage N3 Duration LS Mean Difference vs placebo Estimate (HD: Compound A 112 mg): 5.85 min
- Stage REM % LS Mean (HD: Compound A 112 mg): 15.72%
- Stage REM % LS Mean Difference vs placebo Estimate (HD: Compound A 112 mg): −5.66%
- Stage REM Duration LS Mean (HD: Compound A 112 mg): 46.83 min
- Stage REM Duration LS Mean Difference vs placebo Estimate (HD: Compound A 112 mg): -19.73 min
- Stage Wake % LS Mean (HD: Compound A 112 mg): 11.14%
- Stage Wake % LS Mean Difference vs placebo Estimate (HD: Compound A 112 mg): 0.84%
- Stage Wake Duration LS Mean (HD: Compound A 112 mg): 36.46 min
- Stage Wake Duration LS Mean Difference vs placebo Estimate (HD: Compound A 112 mg): 0.93 min
- Total Arousal Index LS Mean (HD: Compound A 112 mg): 9.18
- Total Arousal Index LS Mean Difference vs placebo Estimate (HD: Compound A 112 mg): −0.81
- Total Arousal LS Mean (HD: Compound A 112 mg): 46.54
- Total Arousal LS Mean Difference vs placebo Estimate (HD: Compound A 112 mg): −3.87
- Total Leg Movements LS Mean (HD: Compound A 112 mg): 16.94
- Total Leg Movements LS Mean Difference vs placebo Estimate (HD: Compound A 112 mg): −2.01
- Total Leg Movements N1 LS Mean (HD: Compound A 112 mg): 1.41
- Total Leg Movements N1 LS Mean Difference vs placebo Estimate (HD: Compound A 112 mg): 0.15
- Total Leg Movements N2 LS Mean (HD: Compound A 112 mg): 7.59
- Total Leg Movements N2 LS Mean Difference vs placebo Estimate (HD: Compound A 112 mg): −0.95
- Total Leg Movements N3 LS Mean (HD: Compound A 112 mg): 2.72
- Total Leg Movements N3 LS Mean Difference vs placebo Estimate (HD: Compound A 112 mg): 1.09
- Total Leg Movements REM LS Mean (HD: Compound A 112 mg): 4.18
- Total Leg Movements REM LS Mean Difference vs placebo Estimate (HD: Compound A 112 mg): −1.57
- Total Leg Movements with Awakening LS Mean (HD: Compound A 112 mg): 0.84
- Total Leg Movements with Awakening LS Mean Difference vs placebo Estimate (HD: Compound A 112 mg): −0.91
- Total Leg Movements with Microarous LS Mean (HD: Compound A 112 mg): 2.14
- Total Leg Movements with Microarous LS Mean Difference vs placebo Estimate (HD: Compound A 112 mg): 0.13
- Total Leg Movements with Resp Event LS Mean (HD: Compound A 112 mg): 0.06
- Total Leg Movements with Resp Event LS Mean Difference vs placebo Estimate (HD: Compound A 112 mg): 0.01
- Total Leg Movements without Arousal LS Mean (HD: Compound A 112 mg): 14.77
- Total Leg Movements without Arousal LS Mean Difference vs placebo Estimate (HD: Compound A 112 mg): −2.15
- Total Recording Time LS Mean (HD: Compound A 112 mg): 351.06 min
- Total Recording Time LS Mean Difference vs placebo Estimate (HD: Compound A 112 mg): -5.85 min
- Total Sleep Time LS Mean (HD: Compound A 112 mg): 298.98 min
- Total Sleep Time LS Mean Difference vs Placebo Estimate (HD: Compound A 112 mg): -10.49 min
- Wake After Persistent Sleep LS Mean (HD: Compound A 112 mg): 35.95 min
- Wake After Persistent Sleep LS Mean Difference vs placebo Estimate (HD: Compound A 112 mg): 1.33 min
- Wake After Sleep Onset LS Mean (HD: Compound A 112 mg): 36.46 min
- Wake After Sleep Onset LS Mean Difference vs placebo Estimate (HD: Compound A 112 mg): 0.93 min
- PSG Awakenings LS Mean [2]: 5.71
- PSG Awakenings LS Mean Difference vs Placebo Estimate [2]: 1.22
- PSG N1 Latency LS Mean [2]: 2.89 min
- PSG N1 Latency LS Mean Difference vs Placebo Estimate [2]: -2.47 min
- PSG N2 Latency LS Mean [2]: 4.72 min
- PSG N2 Latency LS Mean Difference vs Placebo Estimate [2]: -1.93 min
- PSG N3 Latency LS Mean [2]: 15.83 min
- PSG N3 Latency LS Mean Difference vs Placebo Estimate [2]: -11.45 min
- PSG Per. Slp LS Mean [2]: 4.50 min
- PSG Per. Slp LS Mean Difference vs Placebo Estimate [2]: -2.37 min
- PSG REM Latency LS Mean [2]: 84.57 min
- PSG REM Latency LS Mean Difference vs Placebo Estimate [2]: 29.64 min
- PSG Sleep Efficiency LS Mean [2]: 84.65%
- PSG Sleep Efficiency LS Mean Difference vs Placebo Estimate [2]: −2.06%
- PSG Sleep Onset LS Mean [2]: 2.94 min
- PSG Sleep Onset LS Mean Difference vs Placebo Estimate [2]: -1.04 min
- PSG Spontaneous Arousal Index LS Mean [2]: 8.26
- PSG Spontaneous Arousal Index LS Mean Difference vs Placebo Estimate [2]: −0.67
- PSG Spontaneous Arousal LS Mean [2]: 41.46
- PSG Spontaneous Arousal LS Mean Difference vs Placebo Estimate [2]: −3.61
- PSG Stage N1 % LS Mean [2]: 6.08%
- PSG Stage N1 % LS Mean Difference vs Placebo Estimate [2]: 0.00%
- PSG Stage N1 Duration LS Mean [2]: 18.05 min
- PSG Stage N1 Duration LS Mean Difference vs Placebo Estimate [2]: -0.35 min
- PSG Stage N2 % LS Mean [2]: 48.93%
- PSG Stage N2 % LS Mean Difference vs Placebo Estimate [2]: 2.22%
- PSG Stage N2 Duration LS Mean [2]: 147.83 min
- PSG Stage N2 Duration LS Mean Difference vs Placebo Estimate [2]: 3.76 min
